Measured values as given in PubChem BioAssay (NCI).
Where “and” joins values, the source holds several entries; their conditions need not be identical. Equal values may be shown once.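 Five concentrations, 48 hours, 96-well plates. GI50 marks 50% less growth. TGI is the concentration that stops growth completely.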

Key:
Test in all cases: NCI tumour cell line growth inhibition, 48 h
ACHN renal = system: ACHN renal
BT-549 breast = system: BT-549 breast
HOP-62 NSCLC = system: HOP-62 NSCLC
IGROV1 ovarian = system: IGROV1 ovarian
KM12 colon = system: KM12 colon
LOX IMVI melanoma = system: LOX IMVI melanoma
MOLT-4 leukemia = system: MOLT-4 leukemia
NCI-H226 lung = system: NCI-H226 lung
NCI-H23 lung = system: NCI-H23 lung
SK-MEL-5 melanoma = system: SK-MEL-5 melanoma
SNB-19 CNS = system: SNB-19 CNS
TK-10 renal = system: TK-10 renal

Row | SMILES | GI50 (ACHN renal) | TGI (ACHN renal) [µM] | TGI (BT-549 breast) | GI50 (HOP-62 NSCLC) | TGI (HOP-62 NSCLC) | TGI (IGROV1 ovarian) [µM] | TGI (KM12 colon) [µM] | TGI (LOX IMVI melanoma) [µM] | TGI (MOLT-4 leukemia) [µM] | TGI (NCI-H226 lung) [µM] | GI50 (NCI-H23 lung) | TGI (NCI-H23 lung) [µM] | TGI (SK-MEL-5 melanoma) [µM] | GI50 (SNB-19 CNS) | TGI (SNB-19 CNS) [µM] | TGI (TK-10 renal) [µM] | GI50 (BT-549 breast)
1 | COc1ccc(-c2nc(SC)n(C3OC(COC(C)=O)C(OC(C)=O)C(OC(C)=O)C3OC(C)=O)c(=O)c2C#N)cc1 (stereo not given) | 35.8 µM and > 100 µM | > 100 | > 100 µM | 24.4 µM and > 100 µM | 52.7 µM and > 100 µM | > 100 | > 100 | > 100 | > 100 | > 100 | 35.7 µM and > 100 µM | > 100 | > 100 | 26.3 µM and > 100 µM | > 100 | > 100 | 
2 | N#CC1=C(S)N(C2OC(CO)C(O)C(O)C2O)C(c2ccccc2)=CC1c1cccs1 (stereo not given) |  | 40.8 | 30.4 µM |  | 57 µM | 45.7 | 34.7 | 36.9 | > 100 | 41.3 |  | > 100 | 31 |  | > 10 | 48.2 | 
3 | Nc1nc(Cc2ccccc2)nc(Cc2ccccc2)c1-c1ccccc1 |  | > 100 | 50.9 µM |  | 54 µM | > 100 | 75 | 51.4 | 59.7 | 53.4 |  | 45.2 | 29.2 |  | > 100 | > 100 | 
4 | COc1ccc2c(c1)C(=O)[C@@](Nc1ccc(C=O)cc1)(OC)[C@@](OC)(c1ccc([N+](=O)[O-])cc1)O2 |  | > 10 | > 10 µM |  | > 10 µM | > 10 | > 10 | > 10 | > 10 | > 10 |  | > 10 | > 10 |  | > 10 | > 10 | 
5 | Cc1ccc2c(=O)c(C(=O)NNC(=S)NC3CCCCC3)c[nH]c2n1 |  | > 100 | > 100 µM |  | > 100 µM | > 100 | > 100 | > 100 | > 100 | > 100 |  | > 100 | > 100 |  | > 100 | > 100 | 
6 | C=COC(=O)N1C2CCCC(Cl)(C(C)=O)C1CC2 (stereo not given) |  | > 100 | > 100 µM |  | > 100 µM | > 100 | > 100 | > 100 | > 100 | > 100 |  | > 100 | > 100 |  | > 100 | > 100 | 
7 | CC1(C)CN=C(Nc2ccc(F)c(Cl)c2)S1 |  | > 100 | > 100 µM |  | > 100 µM | > 100 | > 100 | > 100 | > 100 | > 100 |  | > 100 | > 100 |  | > 100 | > 100 | 
8 | CC1(C)/C(=N\Nc2ccc([N+](=O)[O-])cc2[N+](=O)[O-])C2CCC1C2 (stereo not given) |  | > 100 | > 100 µM |  | > 100 µM | > 100 | > 100 | > 100 | > 100 | > 100 |  | > 100 | > 100 |  | > 100 | > 100 | 
9 | COc1ccc2c(c1)OC1c3ccccc3OCC21 (stereo not given) |  | > 100 | > 100 µM |  | > 100 µM | > 100 | > 100 | > 100 | 81.9 | > 100 |  | > 100 | > 100 |  | > 100 | > 100 | 
10 | O=C(c1cccc2cc(O)ccc12)c1cn(CCN2CCOCC2)c2ccccc12 |  | > 100 | 56.9 µM |  | 46.1 µM | 43.4 |  | 39.1 | 62.9 | 87.3 |  | > 100 | 55.3 |  | > 100 | 50.9 | 
11 | C=CC(C)(C)n1cc(C2=C(O)C(=O)C(c3c(CC=C(C)C)[nH]c4ccccc34)=C(O)C2=O)c2ccccc21 |  | 4.32 | 1.91 µM |  | 2.63 µM | 2.45 | 2.63 | 5.38 | 9.51 | 3.64 |  | 19.6 | 4.1 |  | 10.8 |  | 
12 | OC1(C2(c3ccc(Cl)cc3)CCCC2)c2ccccc2C2=NCCN21 (stereo not given) |  | 30.5 | 31.5 µM |  | 32.6 µM | 26.8 | 36.3 | 28.3 | 32.2 | 33 |  | 36.1 | 25.1 |  | 30.5 | 28.9 | 
13 | Cc1c(C#N)c(N)n(C2OC(CO)C(O)C(O)C2O)c(=S)c1C#N (stereo not given) |  | > 100 | 68.6 µM and > 100 µM |  | > 100 µM | > 100 | > 100 | > 100 | > 100 | > 100 |  | > 100 | > 100 |  | > 100 | > 100 | 18.5 µM and > 100 µM
14 | C[C@H]1[C@H](C)CC[C@]2(C(=O)OC3OC(CO)C(O)C(O)C3O)CC[C@]3(C)C(=CC[C@@H]4[C@@]5(C)C[C@@H](O)[C@@H]6OC(=O)c7cc(O)c(O)c(O)c7-c7c(cc(O)c(O)c7O)C(=O)OC[C@]6(CO)[C@@H]5CC[C@]43C)[C@H]12 (stereo not given in full) |  | > 100 | > 100 µM |  | > 71.1 µM | > 100 | > 76.3 | 25.8 | 66.9 | > 100 |  | > 100 | > 100 |  | > 77.9 | > 100 | 
15 | COc1ccc2c(c1)c(=O)c1c(NCCCN(C)C)ccc3ncn2c31 |  | 16.8 | 32 µM |  | 15 µM | 21.2 | 15.5 | 4.86 | 13.9 | 22.2 |  | 21 | 24.3 |  | 20.5 | 20.1 | 
16 | CC1(C)CC[C@]2(C(=O)O)CC[C@]3(C)C(=CC[C@@H]4[C@@]5(C)CC[C@H](OC6OC(CO)C(O)C(O)C6O)C(C)(C)[C@@H]5CC[C@]43C)[C@@H]2C1 (stereo not given in full) |  | 3.04 | 2.59 µM |  | 3.14 µM | 3.06 | 2.86 | 3.23 | 4.55 | 3.4 |  | 3.52 | 3.54 |  | 2.89 |  | 
17 | O=C(NNC(=O)c1c(Cl)c(Cl)c(Cl)c(Cl)c1-c1nc2ccccc2[nH]1)c1ccc(Cl)cc1 |  | > 100 | > 100 µM |  | > 100 µM | > 100 | > 100 | > 100 | > 100 | > 100 |  | > 100 | > 100 |  | > 100 |  | 
